Experimental data as given in patent publication US9254273B2, “Compositions and methods for treating Alzheimer's disease and related disorders and promoting a healthy nervous system” (Icahn School of Medicine at Mount Sinai, priority 2004, dated 2016).
“Also recorded” adds a separate entry of the source. Like-named read-outs stand apart in the source and are kept apart here.

How the values were obtained:
Tg2576 mice [1] = assay: Cognitive function in Tg2576 mice; type: in vivo, mouse
NOTCH [2] = assay: γ-secretase-mediated cleavage of NOTCH in H4-APPswe cells; type: cell-based, human; details: FIG. 8B
Excerpt: The selectivity of D-pinitol action was further addressed by examining its effect on cleavage of the signaling molecule NOTCH. The “gamma-secretase” complex, consisting of presenilins (PS), nicastrin (NCT), APH-1 and PEN-2, catalyzes the intramembranous proteolysis of truncated Notch derivatives to generate NICD, respectively.

[3] = LDH assay of cell toxicity; type: cell-based; details: all concentrations tested, 50-250 μM, not shown
α-secretase = assay: Cell-based α-secretase activity assay (fluorometric kit) in pinitol-treated H4 cells; set-up: species or system human; details: cultured H4 cells, increasing concentrations of pinitol, 24 and 48 hours
Experimental: (§1) In this study, cultured human glioma H4-cells with constitutive APP751 expression were treated with increasing concentrations of pinitol, and then cellular ∀- and ∃-secretase activity as well as A∃ peptide contents in the conditioned media were assessed in response to pinitol treatment over time. Growth and maintenance of H4-APP751 cells were as described in Qin et al. (J. Biol. Chem. 2002; 278:50970-50977). Confluent cell cultures were treated with increasing concentration of pinitol. At 24 and 48 hours after pinitol treatment, cells were harvested for secretase activity assays and conditioned media were collected for measurement of A∃ peptide contents. The ∀-secretase (FIG. 7A) and ∃-secretase (FIG. 7B) activities in pinitol-treated cells were measured using commercially available kits (R&D Systems). Harvested cells were homogenized in supplied buffers and homogenate was added to a secretase-specific APP peptide conjugated to the reporter molecules EDANS and DABCYL. […] Cleavage of the peptide by the secretase physically separates the EDANS and DABCYL, allowing the release of a fluorescent signal. The level of ∀-secretase (FIG. 7A) or ∃-secretase (FIG. 7B) enzymatic activity is proportional to the fluorometric reaction in the homogenate. […] A∃ peptides were measured by ELISA as described above. […]

GSK-3 = GSK-3 activity in the brain of Tg2576 mice; type: in vivo, mouse; details: Tg2576 mice treated with D-pinitol
γ-secretase [4] = assay: In vitro γ-secretase assay (in vitro model of amyloidosis): CTF-γ from membrane-bound APP, H4-APPswe cells; type: biochemical, human
Experimental: (§2) For assessment of γ-secretase activity, cell monolayers were rinsed twice with ice-cold PBS on ice, scraped from tissue culture dishes and centrifuged (1,500 rpm, 10 min, 4° C.). Cell pellets were then resuspended (0.5 ml/10 cm dish) in homogenization buffer (10 mM MOPS pH 7.0, 10 mM potassium chloride, 1× complete protease inhibitor (PI) (Roche Molecular Biochemicals, Germany) and homogenized by passing cell suspensions through a 23-gauge needle 10 times. Homogenates were then centrifuged (2,500 rpm, 15 min at 4° C.) to remove unbroken cells and nuclei. The supernatant (membrane and post-nuclear supernatant) was then centrifuged (14,000 rpm, 20 min, 4° C.) and rinsed in homogenization buffer. Membranes were then resuspended (0.5 ml/10 cm dish) in assay buffer (150 mM sodium citrate pH 6.4; 1×PI) and incubated at (2 hr) at 37° C. in 25 μl of incubation buffer per assay sample to allow for generation of the CTF-γ cleavage product; negative control samples were maintained on ice. CTF-γ cleavage products (as well as CTF-α and CTF-β) were resolved electrophoretically in 10-20% Tris-Tricine gels (Bio Rad Laboratories, CA), and identified using an anti APP polyclonal C8 antibody. Immunoreactivities were visualized autoradiographically using a chemiluminescence detection kit (SuperSignal; Pierce Biotechnology, Rockford, Ill.). […]

Tg2576 mice [5] = assay: Aβ peptide content (ELISA) in the brain of Tg2576 mice on high-fat diet plus pinitol; type: in vivo, mouse; details: 12-month old female Tg2576 mice, high-fat diet plus pinitol in drinking water (600 mg/liter), from 4 months of age
Excerpt: This study assessed A∃ peptide contents in the brain and in the periphery (serum) of 12-month old female Tg2576 mice in response to chronic treatment, initiating at 4 month of age, with a high-fat (HF) diet or HF diet plus pinitol (N=3-4 per group). Gender-age-matched Tg2576 mice maintained on standard rodent laboratory diet (LF diet) served as controls. High-fat diet and standard laboratory diet containing equal % of cholesterol per g/diet were purchased from Research Diet, Inc. (New Brunswick, N.J.) (Ho et al, FASEB J 2004; 18:902-204). Pinitol (Humanetics Corp.) was provided by incorporation into drinking water (600 mg pinitol/liter water), which is available ad libitum. […] For quantitative assessment of A∃ peptides (Xiang et al. Gene Expr. 2002, 10:271-278), frozen pulverized brain tissues were homogenized in 5.0 M guanidine buffer, diluted (1:10) in phosphate-buffered saline containing 0.05% (v/v) Tween-20 and 1 mM Pefabloc protease inhibitors (Roche Biochemicals, Indianapolis, Ind.) and centrifuged for 20 min at 4° C. Total Aβ1-40 or Aβ1-42 was measured by sandwich ELISA (BioSource, Camarillo, Calif.) according to the manufacturer's instructions. Serum specimens were assessed directly using the same ELISA according to the manufacturer's instructions.

[6] = history of use, animal and human clinical scientific studies; cited from earlier work
γ-secretase [7] = assay: Aβ peptide content in conditioned media by ELISA (γ-secretase readout) in pinitol-treated H4 cells; type: cell-based, human
Experimental: For quantitative assessment of A∃ peptides (Xiang et al. Gene Expr. 2002, 10:271-278), frozen pulverized brain tissues were homogenized in 5.0 M guanidine buffer, diluted (1:10) in phosphate-buffered saline containing 0.05% (v/v) Tween-20 and 1 mM Pefabloc protease inhibitors (Roche Biochemicals, Indianapolis, Ind.) and centrifuged for 20 min at 4° C. Total Aβ1-40 or Aβ1-42 was measured by sandwich ELISA (BioSource, Camarillo, Calif.) according to the manufacturer's instructions. Serum specimens were assessed directly using the same ELISA according to the manufacturer's instructions.
In this study, cultured human glioma H4-cells with constitutive APP751 expression were treated with increasing concentrations of pinitol, and then cellular ∀- and ∃-secretase activity as well as A∃ peptide contents in the conditioned media were assessed in response to pinitol treatment over time. Growth and maintenance of H4-APP751 cells were as described in Qin et al. (J. Biol. Chem. 2002; 278:50970-50977). Confluent cell cultures were treated with increasing concentration of pinitol. At 24 and 48 hours after pinitol treatment, cells were harvested for secretase activity assays and conditioned media were collected for measurement of A∃ peptide contents. The ∀-secretase (FIG. 7A) and ∃-secretase (FIG. 7B) activities in pinitol-treated cells were measured using commercially available kits (R&D Systems). Harvested cells were homogenized in supplied buffers and homogenate was added to a secretase-specific APP peptide conjugated to the reporter molecules EDANS and DABCYL. […] Cleavage of the peptide by the secretase physically separates the EDANS and DABCYL, allowing the release of a fluorescent signal. The level of ∀-secretase (FIG. 7A) or ∃-secretase (FIG. 7B) enzymatic activity is proportional to the fluorometric reaction in the homogenate. […] A∃ peptides were measured by ELISA as described above. In FIG. 7, each value represents Mean±SEM; n=4 cultures per assay; * P<0.05 vs. control (no pinitol treatment) group (2-tailed Student's t test).

β-secretase = molecular target: T1, β-secretase (Homo sapiens, UniProt P56817); assay: Cell-based β-secretase activity assay (fluorometric kit) in pinitol-treated H4 cells; details: cultured H4 cells, increasing concentrations of pinitol, 24 and 48 hours
T1 construct: endogenous in cells; host or cells: H4-APP751 human glioma cells (homogenate)
T1 sequence (P56817 46-501): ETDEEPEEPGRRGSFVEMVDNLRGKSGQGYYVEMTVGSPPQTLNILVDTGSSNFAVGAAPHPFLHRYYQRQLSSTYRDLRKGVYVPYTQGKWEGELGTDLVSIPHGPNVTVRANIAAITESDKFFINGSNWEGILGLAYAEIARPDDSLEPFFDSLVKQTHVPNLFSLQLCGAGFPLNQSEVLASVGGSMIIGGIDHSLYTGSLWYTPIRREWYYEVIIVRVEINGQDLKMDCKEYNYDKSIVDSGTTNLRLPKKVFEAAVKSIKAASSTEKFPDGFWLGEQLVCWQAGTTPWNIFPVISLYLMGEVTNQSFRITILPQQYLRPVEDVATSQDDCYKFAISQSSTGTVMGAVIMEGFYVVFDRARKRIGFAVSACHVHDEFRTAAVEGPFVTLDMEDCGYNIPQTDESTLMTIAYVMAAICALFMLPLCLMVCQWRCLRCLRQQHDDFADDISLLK
Experimental: as §1

[8] = cited from earlier work
NOTCH [9] = assay: Cleavage of NOTCH in the neocortex of Tg2576 transgenic mice; type: in vivo, mouse; details: compared to insulin-resistant and control Tg2576 mice, data not shown
[10] = insulin-resistant and hyperinsulinemic monkeys; cited from earlier work
γ-secretase [11] = assay: In vitro γ-secretase assay in extracts obtained from CHO-APPswe cells; type: biochemical; details: data not shown
Experimental: as §2

[12] = test system: insulin receptor signal transduction; assay: Insulin receptor signal transduction in the brain of Tg2576 mice; type: in vivo, mouse
[13] = conditioned culture media, ELISA, increasing concentrations of pinitol
[14] = 80 mg/kg/day in drinking water from six months of age, 12-month old Tg2576 mice

## CO[C@H]1[C@H](O)[C@@H](O)[C@@H](O)[C@H](O)[C@@H]1O [D-pinitol]
Tg2576 mice [1]; NIDDM-like insulin resistant Tg2576 mice
  cognitive impairment: beneficially influences
Tg2576 mice [1]; Tg2576 mice, 80 mg/kg body weight per day in drinking water, preliminary studies
  cognitive functions: promotes
NOTCH [2]
  cleavage of NOTCH: no inhibitory effect
[3]
  cell toxicity (LDH assay): no detectable cell toxicity
α-secretase
  α-secretase activity: no effect; also recorded: does not influence
GSK-3
  GSK-3 activity in the brain: restoration
γ-secretase [4]; H4-APPswe cells, membrane-bound APP
  formation of the ~7 kDa CTF-γ APP fragment: blocked; also recorded: selective reduction
Tg2576 mice [5]
  β-amyloidogenesis in the brain: amelioration
Tg2576 mice [5]; listed as pinitol
  β-amyloidogenesis in the brain: reduced
[6]
  toxicity and safety in man: non-toxic and safe
γ-secretase [7]; [13]
  Aβ1-40 production: dose-dependent inhibition
  Aβ1-42 production: dose-dependent inhibition
γ-secretase [7]; cultured H4 cells, read out as Aβ1-40 and Aβ1-42 in conditioned media
  γ-secretase activity: robust inhibitory effect
β-secretase
  β-secretase activity: no effect; also recorded: does not influence
[8]; normal rats given glucose
  blood glucose concentration: lower
[8]; streptozotocin-induced diabetic rats
  blood glucose concentration: lower
NOTCH [9]
  cleavage of NOTCH in the neocortex: no inhibitory effect
[10]
  rate of glucose disappearance: increased
γ-secretase [11]; CHO-APPswe cells
  Aβ1-40 peptide in the same tissue culture: corresponding reduction
γ-secretase [11]; extracts from CHO-APPswe cells
  formation of the ~7 kDa CTF-γ APP: blocked in a dose dependent fashion
[12]; [14]
  PI3K-p85α: increased
  S473-AKT: increased
  total IRβ: not
[12]; 80 mg/kg/day in drinking water from six months of age, 12-month old Tg2576 mice, vs insulin resistant and control mice
  Y1162/1163-phosphorylated IRβ: increased
[12]; Tg2576 mice treated with D-pinitol
  insulin receptor signal transduction in the brain: restoration

## OC1C(O)C(O)C(O)C(O)C1O (stereo not drawn) [d-chiro-inositol, reference compound]
γ-secretase [4]; in vitro amyloidosis system
  β-amyloid formation in the in vitro system: no inhibitory effect
